Molecular target: T1, Bcl-2 protein (Recombinant Human Bcl-2 Protein) (Homo sapiens, UniProt P10415)
T1 construct: purchased Novus NBP2-34889
Test: Binding evaluation of mixture library compounds to Bcl-2 using AS-MS (affinity selection mass spectrometry)
Conditions: for ASMS ratio (%) n = 1 / ASMS ratio (%) n = 2: ASMS Ratio(%)=(A−C)/B×100; for ASMS ratio (%) n = 1: replicate n = 1; for ASMS ratio (%) n = 2: replicate n = 2
Procedure: For one well of MICROPLATE, 96-well, PP, V-BOTTOM (Greiner bio-one, 651201), DMSO solutions of 12 mixtures (prepared to approximately 0.58 mM based on calculations from the average molecular weight of each mixture), in each of which 100 compounds are mixed, were each dispensed, and dispensed into a total of 12 wells, where the 12 mixtures are mixAI-B4J-01, mixAI-B1M-01, mixAI-B1K-01, mixAI-B10-01, mixAI-B1A-01, mixAI-B3A-01, mixAI-B21-01, mixAI-B2L-01, mixAI-B2N-01, mixAI-B2A-01, mixAI-B2Q-01, and mixAI-B2R-01 listed in [Table AI-03-B4J-01], [Table AI-03-B1M-01], [Table AI-03-B1K-01], [Table AI-03-B10-01], [Table AI-03-B1A-01], [Table AI-03-B3A-01], [Table AI-03-B2I-01], [Table AI-03-B2L-01], [Table AI-03-B2N-01], [Table AI-03-B2A-01], [Table AI-03-B2Q-01], and [AI-03-B2R-01] shown in Example 6. Using the LABCYTE ECHO® 555 Acoustic Dispensing System (BECKMAN COULTER), 70 nL was collected from each of the 12 wells into one arbitrary well to prepare a sample solution with 1200 compounds in the mixed state (the presence of 1152 compounds had already been identified when prepared in Example 6-5-3). (In the present specification, the mixture collected in this one well is referred to as one library.) Furthermore, a Bcl-2 protein (Novus, NBP2-34889, Recombinant Human Bcl-2 Protein, Lot E60145051) (19.2 μL) that had been prepared in advance to be 20.9 μM using a Tris-HCl buffer (25 mM Tris-HCl pH 7.4, 150 mM NaCl, 0.025% Tween-20, 1 mM DTT) was added to the well in which 1200 compounds (the presence of 1152 compounds had already been identified when prepared in Example 6-5-3) were dispensed (final compound concentration […], final Bcl-2 concentration 20 μM), and the mixture was incubated in the dark at 23° C. for 1 hour. Next, using the 96-well MacroSpin column, P-2 Material (Harvard, 74-5655) that had been swollen, conditioning of the 96-well MacroSpin column was performed three times by centrifugation with 200 μL of an assay buffer (25 mM Tris-HCl pH 7.4, 150 mM NaCl, 0.025% Tween-20, 1 mM DTT), 2000 XG, 4° C., 2 min. Subsequently, 20 μL of the sample after incubation was added to the 96-well MacroSpin column, P-2 Material, that had been conditioned, and SEC treatment was performed by centrifugation at 2000×G for 2 minutes. To the liquid passed from the SEC, 32 μL of a 1:1 mixed solution of acetonitrile and methanol (LC/MS grade, Fujifilm Wako Pure Chemical Corporation) was added, the mixture was centrifuged at 1800×G, 4° C., 5 min, and the supernatant was used as analysis sample ASMS (A), while a sample that had been prepared by the same operations at 1200 compounds/well and to which only the Tris-HCl buffer had been added without the Bcl-2 protein was incubated under the same conditions, no 96-well MacroSpin column treatment was performed, the same organic solvent was added, and the supernatant solution obtained by centrifugation was used as STD (B). Next, a sample that had been prepared by the same operations at 1200 compounds/well and to which only the Tris-HCl buffer had been added without the Bcl-2 protein was incubated under the same conditions, the same 96-well MacroSpin column treatment was performed, the same organic solvent was added, and the supernatant solution obtained by centrifugation was used as BK (C), and measured by reversed phase LC/MS.
Then, analysis of the 1200 compounds was carried out for samples A, B, and C with TraceFinder 5.1 (Thermo Fisher Scientific) and CHANCE Software (in-house), and the ASMS Ratio (%) was calculated according to the following calculation formula.
Calculation formula: ASMS Ratio(%)=(A−C)/B×100

[1] = AS-MS on the mixture of 1200 library compounds
[2] = AS-MS, mixture of 1200 compounds, Bcl-2

T1 sequence (P10415 whole entry): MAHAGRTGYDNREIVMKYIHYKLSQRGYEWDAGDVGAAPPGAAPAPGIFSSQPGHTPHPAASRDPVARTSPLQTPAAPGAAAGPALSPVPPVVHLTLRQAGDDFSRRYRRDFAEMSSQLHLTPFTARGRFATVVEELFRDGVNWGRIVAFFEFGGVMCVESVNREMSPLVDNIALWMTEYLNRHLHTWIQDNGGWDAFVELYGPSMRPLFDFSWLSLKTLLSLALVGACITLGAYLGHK

Molecule | ASMS ratio (%) n = 2 [1] | ASMS ratio (%) n = 1 (AS-MS, mixture library, Bcl-2) | ASMS ratio (%) n = 2 (AS-MS, mixture library, Bcl-2) | also measured
CCOc1cccc(-c2ccc(CN3CCN(c4ccc(C(=O)Nc5ccc(OC)cc5)cc4)CC3)c(CC)c2)c1 [B1O049-01, 4-[4-[[4-(3-Ethoxyphenyl)-2-ethylphenyl]methyl]piperazin-1-yl]-N-(4-methoxyphenyl)benzamide] | 0.0% | – | – | ASMS ratio (%) n = 1 [1]: 6.1%
CCCNC(=O)c1ccc(N2CCN(Cc3ccc(-c4cncc(OCC)c4)cc3CC)CC2)cc1 [B1M075-01] | – | – | – | ASMS ratio (%) n = 1 [2]: 77.3%; ASMS ratio (%) n = 2 [2]: 46.1%
CCOc1cccc(-c2cc(OC)c(CN3CCN(c4ccc(C(=O)NS(=O)(=O)CC56CC7CC(CC(C7)C5)C6)nn4)CC3)c(OC)c2)c1 [B2A085-01, N-(1-Adamantylmethylsulfonyl)-6-[4-[[4-(3-ethoxyphenyl)-2,6-dimethoxyphenyl]methyl]piperazin-1-yl]pyridazine-3-carboxamide] | – | 0.0% | 0.0% | –
CCOc1cncc(C#Cc2ccccc2C(=O)N2CCN(c3ccc(C(=O)NS(=O)(=O)CC45CC6CC(CC(C6)C4)C5)nn3)CC2)c1 [B2A008-01, N-(1-Adamantylmethylsulfonyl)-6-[4-[2-[2-(5-ethoxypyridin-3-yl)ethynyl]benzoyl]piperazin-1-yl]pyridazine-3-carboxamide] | – | 3.1% | 7.2% | –
CCOc1cncc(C#Cc2ccccc2C(=O)N2CCN(c3ccc(C(=O)NCC45CC6CC(CC(C6)C4)C5)cc3)CC2)c1 [B1A030-01, N-(1-Adamantylmethyl)-4-[4-[2-[2-(5-ethoxypyridin-3-yl)ethynyl]benzoyl]piperazin-1-yl]benzamide] | – | – | – | ASMS ratio (%) n = 1 [2]: 6.9%; ASMS ratio (%) n = 2 [2]: −1.8%
CCOc1cncc(-c2cc(CN3CCN(c4ccc(C(=O)N(CC)CC)cc4)CC3)cc(OCC)c2)c1 [B4J056-01] | −1.5% | – | – | ASMS ratio (%) n = 1 [1]: −1.4%
CCOc1cccc(-c2cc(C(=O)N3CCN(c4ccc(C(=O)NS(=O)(=O)CC56CC7CC(CC(C7)C5)C6)nn4)CC3)cc(C(C)(C)C)c2)c1 [B2A015-01, N-(1-Adamantylmethylsulfonyl)-6-[4-[3-tert-butyl-5-(3-ethoxyphenyl)benzoyl]piperazin-1-yl]pyridazine-3-carboxamide] | – | 5.9% | 9.7% | –
CCOc1cccc(-c2ccc(CN3CCN(c4ccc(C(=O)NS(=O)(=O)CC56CC7CC(CC(C7)C5)C6)cc4)CC3)c(CC)c2)c1 [B2A049-01, N-(1-Adamantylmethylsulfonyl)-4-[4-[[4-(3-ethoxyphenyl)-2-ethylphenyl]methyl]piperazin-1-yl]benzamide] | – | −3.0% | 6.2% | –
CCOc1cccc(-c2cc(CN3CCN(c4ccc(C(=O)NCC56CC7CC(CC(C7)C5)C6)nn4)CC3)cc(OC(C)C)c2)c1 [B1A083-01, N-(1-Adamantylmethyl)-6-[4-[[3-(3-ethoxyphenyl)-5-propan-2-yloxyphenyl]methyl]piperazin-1-yl]pyridazine-3-carboxamide] | – | – | – | ASMS ratio (%) n = 1 [2]: −0.3%; ASMS ratio (%) n = 2 [2]: 0.5%
CCOc1cncc(-c2ccc(C(=O)N3CCN(c4ccc(C(=O)Nc5ccc(OC)cc5)cc4)CC3)cc2F)c1 [B1O028-01, 4-[4-[4-(5-Ethoxypyridin-3-yl)-3-fluorobenzoyl]piperazin-1-yl]-N-(4-methoxyphenyl)benzamide] | 0.4% | – | – | ASMS ratio (%) n = 1 [1]: 4.9%
CCOc1cccc(-c2cc(CN3CCN(c4ccc(C(=O)NS(=O)(=O)C(C)(C)C)nn4)CC3)cc(OCC)c2)c1 [B2L081-01, N-tert-Butylsulfonyl-6-[4-[[3-ethoxy-5-(3-ethoxyphenyl)phenyl]methyl]piperazin-1-yl]pyridazine-3-carboxamide] | – | – | – | ASMS ratio (%) (n = 1): 0.0%; ASMS ratio (%) (n = 2): 0.0%
CCOc1cccc(-c2ccccc2CN2CCN(c3ccc(C(=O)NCC45CC6CC(CC(C6)C4)C5)nn3)CC2)c1 [B1A071-01, N-(1-Adamantylmethyl)-6-[4-[[2-(3-ethoxyphenyl)phenyl]methyl]piperazin-1-yl]pyridazine-3-carboxamide] | – | – | – | ASMS ratio (%) n = 1 [2]: −0.3%; ASMS ratio (%) n = 2 [2]: −3.3%
CCOc1cncc(-c2ccc(CN3CCN(c4ccc(C(=O)NS(=O)(=O)CCC(F)(F)F)nn4)CC3)c(OC)c2)c1 [B2N080-01] | – | – | – | ASMS ratio (%) (n = 1): 0.0%; ASMS ratio (%) (n = 2): 0.0%
CCOc1cccc(-c2cc(CN3CCN(c4ccc(C(=O)NS(=O)(=O)c5ccc(NCCSc6ccccc6)c(C(F)(F)F)c5)cc4)CC3)cc(OC(F)(F)F)c2)c1 [B2R063-01, 4-[4-[[3-(3-Ethoxyphenyl)-5-(trifluoromethoxy)phenyl]methyl]piperazin-1-yl]-N-[4-(2-phenylsulfanylethylamino)-3-(trifluoromethyl)phenyl]sulfonylbenzamide] | – | – | – | ASMS ratio (%) (n = 1): 8.2%; ASMS ratio (%) (n = 2): 4.6%
CCOc1cccc(C#Cc2cncc(C(=O)N3CCN(c4ccc(C(=O)Nc5ccc(OC)cc5)nn4)CC3)c2)c1 [B1O009-01, 6-[4-[5-[2-(3-Ethoxyphenyl)ethynyl]pyridine-3-carbonyl]piperazin-1-yl]-N-(4-methoxyphenyl)pyridazine-3-carboxamide] | 1.3% | – | – | ASMS ratio (%) n = 1 [1]: 1.1%
6-[4-[2-[2-(5-Ethoxypyridin-3-yl)ethynyl]benzoyl]piperazin-1-yl]-N-propylpyridazine-3-carboxamide [B1M096-01] | 0.0% | – | – | –

More lines, main results first:

ASMS ratio (%) n = 2 [1] | ASMS ratio (%) n = 1 (AS-MS, mixture library, Bcl-2) | ASMS ratio (%) n = 2 (AS-MS, mixture library, Bcl-2) | Molecule | also measured
25.2% | – | – | CCOc1cccc(-c2ccc(C(C)N3CCN(c4ccc(C(=O)N(C)CC56CC7CC(CC(C7)C5)C6)cc4)CC3)c(F)c2)c1 (stereo not drawn) [B3A099-01, N-(1-Adamantylmethyl)-4-[4-[1-[4-(3-ethoxyphenyl)-2-fluorophenyl]ethyl]piperazin-1-yl]-N-methylbenzamide] | ASMS ratio (%) n = 1 [1]: −2.6%
– | 0.0% | 0.0% | CCOc1cncc(-c2ccc(C(C)N3CCN(c4ccc(C(=O)NS(=O)(=O)CC56CC7CC(CC(C7)C5)C6)cc4)CC3)c(F)c2)c1 (stereo not drawn) [B2A100-01, N-(1-Adamantylmethylsulfonyl)-4-[4-[1-[4-(5-ethoxypyridin-3-yl)-2-fluorophenyl]ethyl]piperazin-1-yl]benzamide] | –
– | 0.0% | 0.0% | CCOc1cccc(-c2ccc(C(=O)N3CCN(c4ccc(C(=O)NS(C)(=O)=O)cc4)CC3)cc2F)c1 [B2I027-01, 4-[4-[4-(3-Ethoxyphenyl)-3-fluorobenzoyl]piperazin-1-yl]-N-methylsulfonylbenzamide] | –
– | 10.6% | 6.5% | CCOc1cncc(-c2cc(C(=O)N3CCN(c4ccc(C(=O)NS(=O)(=O)c5ccc(NCCSc6ccccc6)c([N+](=O)[O-])c5)nn4)CC3)cc(C(C)(C)C)c2)c1 [B2Q016-01, 6-[4-[3-tert-Butyl-5-(5-ethoxypyridin-3-yl)benzoyl]piperazin-1-yl]-N-[3-nitro-4-(2-phenylsulfanylethylamino)phenyl]sulfonylpyridazine-3-carboxamide] | –

From patent US20240132431A1, “METHOD FOR ALKYLATING ACIDIC FUNCTIONAL GROUP” (Chugai Seiyaku Kabushiki Kaisha, priority 2021, published 2024)
